Legend:
Leishmania donovani [1] = experiment: Antileishmanial activity against axenic amastigote stage of Leishmania donovani MHOM/SD/1962/1S-Cl2d assessed as parasite growth inhibition at 50 uM after 24 hrs by AlamarBlue assay (reference value: 0.0 +/- 4.6%); format: functional; conditions: read-out: GI
Leishmania donovani [2] = experiment: Antileishmanial activity against axenic amastigote stage of Leishmania donovani MHOM/SD/1962/1S-Cl2d assessed as parasite growth inhibition at 15 uM after 24 hrs by AlamarBlue assay (reference value: 1.5 +/- 3.8%); format: functional; conditions: read-out: GI
Leishmania donovani [3] = experiment: Antileishmanial activity against axenic amastigote stage of Leishmania donovani MHOM/SD/1962/1S-Cl2d assessed as parasite growth inhibition after 24 hrs by AlamarBlue assay; format: functional, organism-based
Leishmania donovani [4] = experiment: Antileishmanial activity against axenic amastigote stage of Leishmania donovani MHOM/SD/1962/1S-Cl2d assessed as parasite growth inhibition at 5 uM after 24 hrs by AlamarBlue assay (reference value: 0.0 +/- 0.9%); format: functional; conditions: read-out: GI
[5] = Selectivity index, ratio of IC50 for human THP1 cells to IC50 for axenic amastigote stage of Leishmania donovani MHOM/SD/1962/1S-Cl2d; format: toxicity, cell-based, THP-1; conditions: read-out: Ratio IC50
THP-1 = experiment: Cytotoxicity against human THP1 cells assessed as cell viability after 48 hrs by AlamarBlue assay; format: cell-based; conditions: THP-1, 48 h
Leishmania donovani [6] = experiment: Antileishmanial activity against intracellular amastigote stage of Leishmania donovani infected in human THP1 cells assessed as parasite growth inhibition at 5 uM after 48 hrs by luciferase reporter gene assay relative to control; format: functional; conditions: THP-1, 48 h, read-out: GI
Leishmania donovani [7] = experiment: Antileishmanial activity against intracellular amastigote stage of Leishmania donovani infected in human THP1 cells assessed as parasite growth inhibition at 1 uM after 48 hrs by luciferase reporter gene assay relative to control; format: functional; conditions: THP-1, 48 h, read-out: GI
Leishmania donovani [8] = experiment: Antileishmanial activity against axenic amastigote stage of Leishmania donovani MHOM/SD/1962/1S-Cl2d assessed as parasite growth inhibition at 1 uM after 24 hrs by AlamarBlue assay relative to control; format: functional; conditions: read-out: GI

Row | Compound | inhibition of growth at 50 µM (Leishmania donovani [1]) | inhibition of growth at 15 µM (Leishmania donovani [2]) | inhibition of growth at 5 µM (Leishmania donovani [4]) | other results
1 | C=C(C)[C@@H]1CC[C@]2(C(=O)O)CC[C@]3(C)[C@H](CC[C@@H]4[C@@]5(C)CC[C@H](O)C(C)(C)[C@@H]5CC[C@]43C)[C@@H]12 [BETULINIC ACID] | 61.1% | – | – | –
2 | C=C(C)[C@@H]1CC[C@]2(C(N)=O)CC[C@]3(C)[C@H](CC[C@@H]4[C@@]5(C)Cc6cnoc6C(C)(C)[C@@H]5CC[C@]43C)[C@@H]12 | 84.3% | 16.7% | – | –
3 | CC1(C)CC[C@]23CC[C@]4(C)[C@H](CC[C@@H]5[C@@]6(C)Cc7c([nH]c8ccccc78)C(C)(C)[C@@H]6CC[C@]54C)[C@H]2[C@H]1OC3 | 19.8% | 18.5% | – | –
4 | C=C(C)[C@@H]1CC[C@]2(C(=O)O)CC[C@]3(C)[C@H](CC[C@@H]4[C@@]5(C)Cc6nccnc6C(C)(C)[C@@H]5CC[C@]43C)[C@@H]12 | 92.7% | 79.7% | 20.3% | IC50 (Leishmania donovani [3]): 13.2 µM
5 | C=C(C)[C@@H]1CC[C@]2(CO)CC[C@]3(C)[C@H](CC[C@@H]4[C@@]5(C)Cc6cnoc6C(C)(C)[C@@H]5CC[C@]43C)[C@@H]12 | 56.9% | – | – | –
6 | C=C(C)[C@@H]1CC[C@]2(COC(C)=O)CC[C@]3(C)[C@H](CC[C@@H]4[C@@]5(C)Cc6cnoc6C(C)(C)[C@@H]5CC[C@]43C)[C@@H]12 | 6.1% | – | – | –
7 | C=C(C)[C@@H]1CC[C@]2(C(=O)O)CC[C@]3(C)[C@H](CC[C@@H]4[C@@]5(C)CCC(=O)C(C)(C)[C@@H]5CC[C@]43C)[C@@H]12 [BETUNOLIC ACID] | 98.6% | 45.9% | – | –
8 | C=C(C)[C@@H]1CC[C@]2(C(=O)O)CC[C@]3(C)[C@H](CC[C@@H]4[C@@]5(C)Cc6c([nH]c7ccccc67)C(C)(C)[C@@H]5CC[C@]43C)[C@@H]12 | 23.4% | 27.4% | 5% | –
9 | C=C(C)[C@@H]1CC[C@]2(/C=N/O)CC[C@]3(C)[C@H](CC[C@@H]4[C@@]5(C)Cc6nccnc6C(C)(C)[C@@H]5CC[C@]43C)[C@@H]12 | 2.8% | – | – | –
10 | C=C(C)[C@@H]1CC[C@]2(C(=O)O)CC[C@]3(C)[C@H](CC[C@@H]4[C@@]5(C)CCC(=O)NC(C)(C)[C@@H]5CC[C@]43C)[C@@H]12 | 98.2% | 75.2% | 52% | IC50 (Leishmania donovani [3]): 4.3 µM; selectivity ratio [5]: 12.9; IC50 (THP-1): 55.5 µM; inhibition of growth at 5 µM (Leishmania donovani [6]): 54%
11 | C=C(C)[C@@H]1CC[C@]2(C(=O)O)CC[C@]3(C)[C@H](CC[C@@H]4[C@@]5(C)Cc6cnoc6C(C)(C)[C@@H]5CC[C@]43C)[C@@H]12 | 95.7% | 15.6% | – | –
12 | C=C(C)[C@@H]1CC[C@]2(C(=O)O)CC[C@]3(C)[C@H](CC[C@@H]4[C@@]5(C)Cc6c[nH]nc6C(C)(C)[C@@H]5CC[C@]43C)[C@@H]12 | 60.2% | – | – | –
13 | CC(C)[C@@H]1CC[C@]2(C(=O)O)CC[C@]3(C)[C@H](CC[C@@H]4[C@@]5(C)Cc6cnoc6C(C)(C)[C@@H]5CC[C@]43C)[C@@H]12 | 2.4% | – | – | –
14 | C=C(C)[C@@H]1CC[C@]2(C(=O)O)CC[C@]3(C)[C@H](CC[C@@H]4[C@@]5(C)Cc6cccnc6C(C)(C)[C@@H]5CC[C@]43C)[C@@H]12 | 87.9% | 25.6% | – | –
15 | C=C(C)[C@@H]1CC[C@]2(C(=O)O)CC[C@]3(C)[C@H](CC[C@@H]4[C@@]5(C)Cc6c([nH]c7ccc(OC)cc67)C(C)(C)[C@@H]5CC[C@]43C)[C@@H]12 | 29.3% | 17.5% | 14% | –
16 | C=C(C)[C@@H]1CC[C@]2(C=O)CC[C@]3(C)[C@H](CC[C@@H]4[C@@]5(C)Cc6cnoc6C(C)(C)[C@@H]5CC[C@]43C)[C@@H]12 | 34.2% | 21.1% | – | –
17 | CC1(C)CC[C@]23CC[C@]4(C)[C@H](CC[C@@H]5[C@@]6(C)Cc7c([nH]c8ccc(F)cc78)C(C)(C)[C@@H]6CC[C@]54C)[C@H]2[C@H]1OC3 | 6.8% | 10.2% | 0.2% | –
18 | C=C(C)[C@@H]1CC[C@]2(C(N)=O)CC[C@]3(C)[C@H](CC[C@@H]4[C@@]5(C)Cc6nccnc6C(C)(C)[C@@H]5CC[C@]43C)[C@@H]12 | 94.9% | 35.2% | – | –
19 | C[C@@H]1[C@H](O)[C@@H](C)/C=C/C=C/C=C/C=C/C=C/C=C/C=C/[C@H](O[C@@H]2O[C@H](C)[C@@H](O)[C@H](N)[C@@H]2O)C[C@@H]2O[C@](O)(C[C@@H](O)C[C@@H](O)[C@H](O)CC[C@@H](O)C[C@@H](O)CC(=O)O[C@H]1C)C[C@H](O)[C@H]2C(=O)O [AMPHOTERICIN B] | – | – | – | inhibition of growth at 1 µM (Leishmania donovani [7]): 96.7%; inhibition of growth at 1 µM (Leishmania donovani [8]): 99.9%
20 | C=C(C)[C@@H]1CC[C@]2(C(=O)O)CC[C@]3(C)[C@H](CC[C@@H]4[C@@]5(C)CC[C@H](OC(=O)CC(C)(C)C(=O)O)C(C)(C)[C@@H]5CC[C@]43C)[C@@H]12 [BEVIRIMAT] | 100% | 69.1% | 59% | IC50 (Leishmania donovani [3]): 7.2 µM; selectivity ratio [5]: 7.5; IC50 (THP-1): 54 µM
